Values of other authors, collected in US5574044A, “Muscarine antagonists” (Merck & Co., Inc., priority 1994, dated 1996).

Key:
[1] = tested on: smooth muscle (M3 type) receptor; conditions: ordinarily called M3 type but variously called type M2 or M3
[2] = tested on: pupil; conditions: in vivo
[3] = tested on: ciliary muscle; conditions: in vivo
[4] = in vivo
[5] = tested on: muscarinic receptors
[6] = tested on: eye; conditions: in vivo

SMILES | selectivity for smooth muscle (M3 type) receptor [1] | pupil dilation [2] | action on the ciliary muscle / ocular focusing [3] | sensitization assays [4] | muscarinic selectivity and duration [5] | axial elongation / enlargement of the eye [6]
C[N+]1(C)CCC(OC(=O)C(c2ccccc2)c2ccccc2)CC1 [Example 4-DAMP, 4-diphenylacetoxy-N-methylpiperadine methiodide] | relatively selective antagonist for smooth muscle | – | – | – | – | –
CN1[C@@H]2CC[C@H]1C[C@@H](OC(=O)C(CO)c1ccccc1)C2 (stereo partly drawn) [atropine] | – | causes mydriases (increase of pupil size) | its action on the ciliary muscle to inhibit ocular focusing impairs near visual work like reading | test positive in sensitization assays | long-acting non-specific antimuscarinic agent | –
CN1CCN(CC(=O)N2c3ccccc3C(=O)Nc3cccnc32)CC1 [pirenzepine] | – | far less effective at pupil dilation than atropine | – | test positive in sensitization assays | – | inhibits axial elongation
CN1CCc2cccc3c2[C@H]1Cc1ccc(O)c(O)c1-3 [apomorphine] | – | – | – | – | – | inhibit or actually prevent the axial enlargement of the eye
